The text below walks through data of US7276511B2, “Benzylamine derivative” (Zeria Pharmaceutical Co., Ltd., priority 2003, dated 2007).

The target in one experiment is T1, NK-2 receptor (Homo sapiens, UniProt P21452).
T1 sequence (P21452 1-398): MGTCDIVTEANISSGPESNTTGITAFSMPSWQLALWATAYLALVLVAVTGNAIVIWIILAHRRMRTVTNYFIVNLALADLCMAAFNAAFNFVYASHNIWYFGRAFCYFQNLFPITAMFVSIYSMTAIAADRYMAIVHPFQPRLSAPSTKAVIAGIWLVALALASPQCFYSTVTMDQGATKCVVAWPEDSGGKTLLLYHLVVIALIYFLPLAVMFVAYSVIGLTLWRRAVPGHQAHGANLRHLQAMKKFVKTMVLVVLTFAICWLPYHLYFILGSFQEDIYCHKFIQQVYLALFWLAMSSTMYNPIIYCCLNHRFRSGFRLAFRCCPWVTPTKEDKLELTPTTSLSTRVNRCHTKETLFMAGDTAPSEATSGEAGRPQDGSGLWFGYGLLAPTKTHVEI
The settings on record: in vitro for (B); known from Patent Documents 2 and 4; cited from earlier work.

Experiment [1] concerns the target T2, NK-1 receptor (Homo sapiens, UniProt P25103). To be noted: known from Patent Document 4; cited from earlier work.
Target sequence in this assay (P25103 whole entry, species assumed): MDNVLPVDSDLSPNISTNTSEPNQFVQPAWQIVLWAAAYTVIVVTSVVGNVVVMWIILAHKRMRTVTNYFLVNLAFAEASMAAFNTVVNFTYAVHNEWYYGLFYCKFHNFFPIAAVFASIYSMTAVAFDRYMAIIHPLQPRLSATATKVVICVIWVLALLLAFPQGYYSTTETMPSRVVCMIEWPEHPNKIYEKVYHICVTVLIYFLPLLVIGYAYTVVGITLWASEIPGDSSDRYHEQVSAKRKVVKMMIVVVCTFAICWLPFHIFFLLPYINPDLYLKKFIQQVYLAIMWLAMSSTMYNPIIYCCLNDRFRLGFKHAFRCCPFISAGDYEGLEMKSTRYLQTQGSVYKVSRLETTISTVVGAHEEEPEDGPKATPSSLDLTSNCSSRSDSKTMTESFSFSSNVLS
The target in experiment [2] is T3, Cloned Neurokinin Receptor Subtype 2 Human (Homo sapiens, UniProt P21452).
T3 construct: purchased Biosignal Packard; host or cells: CHO cells
T3 sequence (P21452 1-398): T1 sequence (P21452 1-398)
Description: NK-2 receptor-binding experiment ([3H]-SR48968, CHO cell membranes). To be noted: Table 4; inhibition of [3H]-SR48968 (0.85 nM) binding, pseudo-Hill analysis. The method, then:
2. NK-2 Receptor-binding Experiment
Cloned Neurokinin Receptor Subtype 2 Human (CHO cells, Biosignal Packard), [^3H]-SR48968 (Amersham, final concentration 0.85 nM), and a test compound were mixed with 20 mM HEPES buffer, and the mixture was incubated for 50 minutes at 27° C. After completion of incubation, membrane components were collected by means of an automatic filtration apparatus (Brandel) onto a GF/C glass fiber filter (Whatman).
Before use, in order to prevent non-specific binding, the glass fiber filter had been pre-treated with 0.1% polyethylene imine solution for about 4 hours.
The filter employed to collect the membrane components was transferred to a plastic vial containing UltimaGold MV (5 mL), and measured by means of a liquid scintillation counter (Packard, 2000CA) in terms of the radioactivity.
(§1) Percent radioactive ligand-receptor binding inhibition of each test compound was calculated by use of the following equation, and IC50 (nM) was determined through pseudo-Hill analysis.
(§2) Percent inhibition (%)=[1−(C−A)/(B−A)]×100
(§3) A: Radioactivity attributed to non-specific binding
(§4) B: Radioactivity without test compound
(§5) C: Radioactivity with test compound

For experiment [3], the target named is T2, NK-1 receptor. Description: NK-1 receptor-binding test ([3H]-Substance P, hNK1-CHO cells). The arrangement: expressed in transfected cells; host or cells: CHO-K1 cells (ATCC: CCL-61), G418-resistant, hNK1-CHO. The method, then: 1. NK-1 Receptor-binding Test
1) Preparation of Human NK-1 Receptor Expression Cells
FuGene 6 transfection reagent (Boegringer Mannheim) (3 μL) was diluted in an F-12 culture broth (97 μL), and pCR3.1 plasmid to which human NK-1 receptor cDNA had been introduced (Invitrogen) (10 μL) was added thereto. The mixture was mixed and incubated for 15 minutes (transfection reagent). CHO-K1 cells (ATCC: CCL-61) were cultured for 24 hours, and the whole reagent prepared above was added to the cultured CHO-K1 cells ([…]). Subsequently, culture was performed in the presence of G418 (Stratagene), and the resistant cells were employed as cells into which human NK-1 receptor gene was introduced (hNK1-CHO).
2) Subcultivation of hNK1-CHO Cells
The hNK1-CHO cells were treated with trypsin-EDTA and subcultivated in an F-12 culture broth (containing 10% fetal bovine serum, 10 mM HEPES, 100 U/mL, penicillin, 100 μg/mL streptmycin, 400 μg/mL G418) in a 75-cm^2 flask (FALCON). Cells to be employed in the receptor-binding experiment were added to a 24-well plate (IWAKI) at 1×10^5 cells/well, and subcultured for 48 hours at 37° C. under 95% […] and 5% CO2.
3) Receptor-binding Experiment
When the hNK1-CHO cells became subconfluent on the 24-well plate, an F-12 culture broth (containing 10 mM HEPES and 0.1% fetal bovine serum) (450 μL), [^3H]-Substance P (Amersham, final concentration 0.5 nM), and a test compound were added to the cells, and the mixture was incubated for 40 minutes at 37° C. For the measurement of non-specific binding, L703606 (Sigma) was added instead of the test compound. After completion of incubation, the mixture was washed with ice-cooled phosphate buffered saline containing 0.1% fetal bovine serum, and the cells were lysed with 1N NaOH (0.5 mL). The lysate was transfered to a plastic vial containing UltimaGold MV (5 mL), and the radioactivity was determined by means of a liquid liquid scintillation counter (Packard, 2000CA).
as §1, §2, §3, §4, §5
Target sequence in this assay (P25103 whole entry): as the sequence (P25103 whole entry, species assumed) above

Where [4] appears, read: Table 4, inhibition of [3H]-Substance P (0.5 nM) binding to hNK1-CHO cells, pseudo-Hill analysis, read-out: NK-1.

Counter-ions that a name gives are not always drawn. Like-named read-outs stand apart in the source and are kept apart here.

`COc1cc(C(=O)N2CCO[C@](CCN3CCCC4(C3)c3ccccc3C[S+]4[O-])(c3ccc(Cl)c(Cl)c3)C2)cc(OC)c1OC` (stereo partly shown) [(D)]: the “antagonistic activity against NK-2 receptor” value on NK-2 receptor is “excellent antagonistic activity”. Also, the “antagonistic activity against NK-1 receptor” value at NK-1 receptor [1] is given as “excellent antagonistic activity”.

As for `CN(CC(CCN1CCC2(CC1)c1ccccc1C[S+]2[O-])(c1ccc(Cl)c(Cl)c1)N(C)C(=O)CC(c1ccccc1)c1ccccc1)C(=O)CC(F)(F)F` [Compound No. 1, N-{2-(3,4-dichlorophenyl)-2-[(3,3-diphenylpropionyl)-methylamino]-4-{spiro[benzo(c)thiophene-1(3H),4′-piperidine]-(2S)-oxide}-1′-yl-butyl}-3,3,3-trifluoro-N-methyl-propionamide hydrochloride], the IC50 in experiment [2] was determined as 1.6 nM; on NK-1 receptor [3] (setting [4]) it was 1.2 nM. The matching figures for `CC(C)C(=O)N(C)CC(CCN1CCC2(CC1)c1ccccc1C[S+]2[O-])(c1ccc(Cl)c(Cl)c1)N(C)C(=O)CC(c1ccccc1)c1ccccc1` [Compound No. 2, N-{2-(3,4-dichlorophenyl)-2-[(3,3-diphenylpropionyl)-methylamino]-4-{spiro[benzo(c)thiophene-1(3H),4′-piperidine]-(2S)-oxide}-1′-yl-butyl}-N-methyl-isobutylamide hydrochloride]: 2.1 nM and 4.3 nM.

With `CN(CC(CCN1CCC2(CC1)c1ccccc1C[S@+]2[O-])(c1ccc(Cl)c(Cl)c1)N(C)C(=O)NC(c1ccccc1)c1ccccc1)C(=O)C(F)(F)Cl` (stereo partly drawn) [Compound No. 4, N-{2-(3-benzohydryl-1-methylureido)-2-(3,4-dichlorophenyl)-4-{spiro[benzo(c)thiophene-1(3H),4′-piperidine]-(2S)-oxide}-1′-yl-butyl}-2-chloro-2,2-difluoro-N-methyl-acetamide hydrochloride], the IC50 in experiment [2] amounted to 1.5 nM; at NK-1 receptor [3] (setting [4]) it was 3.4 nM. `CCC(=O)N(C)CC(CCN1CCC2(CC1)c1ccccc1C[S+]2[O-])(c1ccc(Cl)c(Cl)c1)N(C)C(=O)CC(c1ccccc1)c1ccccc1` [Compound No. 5, N-{2-(3,4-dichlorophenyl)-2-[(3,3-diphenylpropionyl)-methylamino]-4-{spiro[benzo(c)thiophene-1(3H),4′-piperidine]-(2S)-oxide}-1′-yl-butyl}-N-methyl-propionamide hydrochloride]: the values for the IC50 (in experiment [2]; at NK-1 receptor [3] (setting [4])) were 1.9 nM and 6.3 nM, respectively. In the case of `CC(=O)NC1(c2ccccc2)CCN(CCC(CN(C)C(=O)C(F)F)(c2ccc(Cl)c(Cl)c2)N(C)C(=O)NC(c2ccccc2)c2ccccc2)CC1` (stereo not shown) [Compound No. 12, N-[4-(4-Acetylamino-4-phenyl-piperidine-1′-yl)-2-(3-benzhydryl-1-methyl-ureido)-2-(3,4-dichlorophenyl)-butyl]-2,2-difluoro-N-methyl-acetamide hydrochloride], the IC50 in experiment [2] is 6.1 nM; at NK-1 receptor [3] (setting [4]), 11 nM. The matching figures for `CN(C[C@](CCN1CCC2(CC1)c1ccccc1C[S@+]2[O-])(c1ccc(Cl)c(Cl)c1)N(C)C(=O)C(c1ccccc1)c1ccccc1)C(=O)CC(F)(F)F` [Compound No. 42, N-{2-(S)-(N-methyl-2,2-diphenylacetamide)-2-(3,4-dichlorophenyl)-4-[spiro(benzo(c)thiophene-(2S)-oxido-1(3H),4′-piperidin)-1′-yl]butyl}-3,3,3-trifluoro-N-methylpropanamido hydrochloride]: 4 nM and 2.1 nM.

For `CN(C[C@](CCN1CCC2(CC1)NC(=O)Cc1ccccc12)(c1ccc(Cl)c(Cl)c1)N(C)C(=O)C(c1ccccc1)c1ccccc1)C(=O)CC(F)(F)F` [Compound No. 43, N-{2-(S)-(N-methyl-2,2-diphenylacetamide)-2-(3,4-dichlorophenyl)-4-[3-oxo-3,4-dihydro-2H-spiro(isoquinoline-1,4′-piperidin)-1′-yl]butyl}-3,3,3-trifluoro-N-methylpropanamido hydrochloride], the IC50 in experiment [2] was determined as 2.1 nM; at NK-1 receptor [3] (setting [4]) it was 7.7 nM. The matching figures for `CC(C)C(=O)N(C)C[C@](CCN1CCC2(CC1)NC(=O)Cc1ccccc12)(c1ccc(Cl)c(Cl)c1)N(C)C(=O)NC(c1ccccc1)c1ccccc1` [Compound No. 44, 1-{1-(N-methyl-isobutylamide)-2-(S)-(3,4-dichlorophenyl)-4-[3-oxo-3,4-dihydro-2H-spiro(isoquinoline-1,4′-piperidin)-1′-yl]butan-2-yl}-3-benzhydryl-1-methylureahydrochloride]: 2.4 nM and 11 nM. As to `CC(C)C(=O)N(C)C[C@](CCN1CCC2(CC1)c1ccccc1C[S@+]2[O-])(c1ccc(Cl)c(Cl)c1)N(C)C(=O)CC(c1ccccc1)c1ccccc1` [Compound No. 45, N-{2-(S)-(N-methyl-3,3-diphenylpropanamido)-2-(3,4-dichlorophenyl)-4-[spiro(benzo(c)thiophene-(2S)-oxido-1(3H),4′-piperidin)-1′-yl]butyl}-N-methyl-isobutylamide hydrobromide], the IC50 was found to be 2.8 nM in experiment [2] and 4.9 nM on NK-1 receptor [3] (setting [4]). The matching figures for `CN(C[C@](CCN1CCC2(CC1)NC(=O)Cc1ccccc12)(c1ccc(Cl)c(Cl)c1)N(C)C(=O)NC(c1ccccc1)c1ccccc1)C(=O)C(F)(F)F` [Compound No. 46, 1-{1-(2,2,2-trifluoro-N-methylacetamide)-2-(S)-(3,4-dichlorophenyl)-4-[3-oxo-3,4-dihydro-2H-spiro(isoquinoline-1,4′-piperidin)-1′-yl]butan-2-yl}-3-benzhydryl-1-methylurea sulfate]: 1.8 nM and 10.1 nM. On NK-1 receptor [3], `CN(C[C@](CCCN1CCC2(CC1)c1ccccc1C[S@+]2[O-])(c1ccc(Cl)c(Cl)c1)N(C)C(=O)Oc1ccc(Cl)c(Cl)c1)C(=O)CC(F)(F)F` [Compound No. 654, 3,4-dichlorophenyl{1-(3,3,3-trifluoro-N-methylpropanamido)-2-(S)-(3,4-dichlorophenyl)-5-[spiro(benzo(c)thiophene-(2S)-oxido-1(3H),4′-piperidin)-1′-yl]pentan-2-yl}methylcarbamate hydrochloride] registered an IC50 of 3 nM. In turn, `CN(C[C@](CCCN1CCC2(CC1)c1ccccc1C[S@+]2[O-])(c1ccc(Cl)c(Cl)c1)N(C)C(=O)Oc1ccc(F)c(F)c1)C(=O)CC(F)(F)F` [compound 655, 3,4-difluorophenyl{1-(3,3,3-trifluoro-N-methylpropanamido)-2-(S)-(3,4-dichlorophenyl)-5-[spiro(benzo(c)thiophene-(2S)-oxido-1(3H),4′-piperidin)-1′-yl]pentan-2-yl}methylcarbamate hydrochloride] came in with an IC50 at NK-1 receptor [3] of 1.3 nM.

For the compound `CN(C[C@@H](CCN1CCC2(CCc3ccccc32)CC1)c1ccc(Cl)c(Cl)c1)C(=O)c1ccccc1` [compound (B), reference compound], the “antagonistic activity against NK-2 receptor” value at NK-2 receptor is “exhibits antagonistic activity only to NK-2 receptor”.
